Entries after “also recorded” stand apart in the source; their conditions may differ.
Legend:
Erk (p44/42 MAPK) = experiment: Western blot of Erk (p44/42 MAPK) activation after HGF/SF stimulation; assay type: cell-based, human; settings: for constitutive level of MAP kinase activity: MDA-MB-231 cells (FIG. 2A/2); for activation of Erk in response to HGF/SF: SK-LMS-1 and MDA-MB-231 cells, inhibitor 1 hour (PD98059 80 μM, U0126 40 μM), then HGF/SF 15 minutes
Method: (§1) FIG. 2A: HGF/SF induces activation of MAP kinase and PI3 kinase pathways in SK-LMS-1 cells and MDA-MB-231 cells. Serum-starved cells were treated with or without DMSO (control), PD98059 (80 μM), U0126 (40 μM) or LY294002 (40 μM) for 1 hour, followed by HGF/SF stimulation for 15 minutes (A time point good for observing all the tyrosine phosphorylation statuses). Whole cell extracts were prepared and the state of Met phosphorylation was detected by immunoprecipitation with anti-human Met antibody, followed by Western blot with anti-Phosphotyrosine (and/or anti-human Met antibody). For detection of Erk and Akt, Western blots were probed with anti-phospho p44/42 MAPK, anti-p44/42 MAPK, anti-phospho Akt (Ser473) or anti-Akt antibodies, respectively. FIG. 2B: Negative regulation of TSP-1 expression occurs primarily through the MAP kinase pathway, while positive regulation of VEGF expression occurs through MAP kinase and PI3 kinase pathway. Total RNAs were prepared from cells with or without inhibitor treatment and/or HGF/SF treatment. Northern Blot analyses were performed as described in FIG. 1A-caption. […] Up-regulation of VEGF was inhibited by PD98059, U0126 as well as LY294002. […]: VEGF but not TSP-1 expression was regulated by Stat3 signaling. Total RNAs were prepared from SK/HGF cells with or without overexpression of a dominant negative form of Stat3, Stat3 (17). […] FIG. 2D: LF increases TSP-1 and decreases VEGF expression in MDA-MB-231 human breast cancer cells. Cells were treated with or without indicated inhibitors for 24 hours and then total RNAs were prepared. Northern Blot analyses were performed using ^32P-radiolabelled probe for human TSP-1, VEGF or GAPDH, respectively.
HGF/SF, acting through its tyrosine kinase receptor, Met, is known to activate several intracellular signaling pathways, including MAP kinase, PI3 kinase and Stat3 (1, 16). The present inventors asked which pathways might be involved in regulating VEGF and TSP-1 expression. The present inventors treated SK-LMS-1 and MDA-MB-231 cells with (or without) various inhibitors for one hour, followed by HGF/SF stimulation for 15 minutes (FIGS. 2A/1 and 2A/2). Met receptor is tyrosine-phosphorylated in response to HGF/SF, followed by the activation of downstream targets of Erk p44/42 MAPK) and Akt/PI3 kinase. […] RNA samples from SK-LMS-1 and MDA-MB-231 cells treated with individual inhibitors followed by HGF/SF treatment for 24 hours were analyzed by Northern Blot analyses. HGF/SF-induced shut off of TSP-1 was blocked by PD98059 or U0126 but was not affected by LY294002 (FIGS. 2B/1-2B/2), nor by overexpression of Stat3B, a dominant-negative form of Stat3 (FIG. 2C) (17). […] In MDA-MB-231 cells, the present inventors observed a dramatic effect from the MEK MAP kinase inhibitors on TSP-1 (FIG. 2B/2).

TSP-1 expression = experiment: Northern blot of TSP-1 expression; assay type: cell-based, human; settings: for TSP-1 expression relative to basal level after inhibitor treatment: MDA-MB-231 cells (FIG. 2B/2); for TSP-1 expression in the absence of HGF/SF induction: inhibitor 24 hours, LF at 1, 3 or 9 μg/ml (FIG. 2D); for HGF/SF-induced shut off (down-regulation) of TSP-1: SK-LMS-1 and MDA-MB-231 cells, inhibitor followed by HGF/SF for 24 hours
Method: (§2) FIG. 1A-1C. HGF/SF up-regulates VEGF and down-regulates TSP-1 expression in SK-LMS-1 cells (FIG. 1A) and MDA-MB-231 cells (FIG. 1B) and HUVEC cells (FIG. 1C). Total RNAs were prepared from SK-LMS-1 cells, MDA-MB-231 cells or HUVEC with or without treatment of recombinant human HGF/SF (200 units/ml) at the indicated time points after stimulation. Total RNAs were also prepared from the SK/HGF cell line, a long-term culture derivative of SK-LMS-1 cells that is autocrine for human HGF/SF (15). Northern Blot was probed with ^32P-radiolabeled TSP-1, VEGF or G3PDH cDNA fragment, respectively. For HUVEC, treatment of recombinant human HGF/SF (200 units/ml) was for 24 hours in the presence or absence of fetal bovine serum (FBS) and Northern Blot analyses were performed using ^32P-radiolabelled probe for human TSP-1, VEGF or GAPDH, respectively. TSP-1 expression in HUVEC cells was decreased in response to HGF/SF treatment. However, VEGF expression was undetectable with or without HGF/SF treatment.
as §1
(§3) VEGF was also elevated in long term cultures of SK-LMS-1 cells autocrine for HGF/SF (SK/HGF, 15) (FIG. 1A). […] This effect was seen as early as 6 hours after HGF treatment and continued to 48 hours. More dramatically, TSP-1 expression was eliminated in the SK/HGF cell line.
(§4) HGF/SF, acting through its tyrosine kinase receptor, Met, is known to activate several intracellular signaling pathways, including MAP kinase, PI3 kinase and Stat3 (1, 16). The present inventors asked which pathways might be involved in regulating VEGF and TSP-1 expression. The present inventors treated SK-LMS-1 and MDA-MB-231 cells with (or without) various inhibitors for one hour, followed by HGF/SF stimulation for 15 minutes (FIGS. 2A/1 and 2A/2). Met receptor is tyrosine-phosphorylated in response to HGF/SF, followed by the activation of downstream targets of Erk p44/42 MAPK) and Akt/PI3 kinase. […] RNA samples from SK-LMS-1 and MDA-MB-231 cells treated with individual inhibitors followed by HGF/SF treatment for 24 hours were analyzed by Northern Blot analyses. HGF/SF-induced shut off of TSP-1 was blocked by PD98059 or U0126 but was not affected by LY294002 (FIGS. 2B/1-2B/2), nor by overexpression of Stat3B, a dominant-negative form of Stat3 (FIG. 2C) (17). […]

VEGF expression = experiment: Northern blot of VEGF expression; assay type: cell-based, human; settings: for VEGF expression in the absence of HGF/SF induction: inhibitor 24 hours, LF at 1, 3 or 9 μg/ml (FIG. 2D); for expression of VEGF induced by HGF/SF: inhibitor followed by HGF/SF for 24 hours; for VEGF expression (up-regulation by HGF/SF): SK-LMS-1 and MDA-MB-231 cells (FIGS. 2B/1, 2B/2); for VEGF expression after HGF/SF treatment: HGF/SF 200 units/ml
Method: as §2, §1, §3, §4

VEGF = settings: cited from earlier work
SK/HGF tumor xenografts = experiment: Subcutaneous tumor growth of SK/HGF-TSP1 versus SK/HGF cells in athymic nude mice; assay type: in vivo; settings: TSP-1 overexpression in SK/HGF cells implanted subcutaneously in athymic nude mice; p<0.025
Text: FIG. 3A-3D. TSP-1 inhibits HGF/SF-induced tumor growth in vivo. FIG. 3A: TSP-1 was ectopically expressed in SK/HGF cells, establishing the SK/HGF-TSP 1 cell line. The expression of TSP-1 in SK/HGF-TSP1 cells was confirmed by Northern blot analysis. FIG. 3B: Tumor growth of SK-LMS cells and the influence of TSP-1 overexpression. SK-LMS-1 control cells, SK/HGF control cells and SK/HGF-TSP 1 cells (clone 26) were subcutaneously implanted in athymic nude mice, respectively. The animals were monitored for tumor growth and tumor volumes (Tvol) were measured twice a week. The Tvol values represent an average of four mice for each group (P<0.025). FIG. 3C: Visualization of the tumors at sacrifice. FIG. 3D: TSP-1 protein in tumor xenografts is derived from SK/HGF-TSP1 cells. Cell extracts were prepared from fresh tumors and TSP-1 protein was detected by anti-TSP-1 antibody under denatured condition.
TSP-1 was overexpressed in SK/HGF cells to generate SK/HGF-TSP1 cells (FIG. 3A). Overexpression of TSP-1 has no effect on cell proliferation or anchorage-independent growth compared the parental SK/HGF cells in vitro (FIGS. 5A-5B). To test whether TSP-1 influences tumorigenicity, the present inventors SK/HGF and SK/HGF-TSP1 cells were subcutaneously implanted in athymic nude mice, and their tumor growth rates were compared. […]

[1] = system: tumor angiogenesis (CD31-positive vessels); experiment: CD31 immunohistochemical staining of blood vessels in tumor sections; assay type: in vivo, athymic nude mice; settings: SK/HGF-TSP1 versus SK/HGF tumors; P<0.01
Text: FIGS. 4A and 4B/1-4B/6 are a graph and photomicrographs showing that TSP-1 inhibits HGF/SF-induced tumor angiogenesis. […] Three fields (10× magnification) from each stained tumor section were photographed and the numbers of CD31-positive vessels (brown staining) were scored. The numbers represent the average number of blood vessels in sections from four tumors for each group (P<0.01).
To test whether the inhibition of tumor growth by TSP-1 was due to an extrinsic effect by preventing tumor angiogenesis, the present inventors performed immunohistochemical staining using antibodies against mouse endothelial cell surface marker CD31 to detect the number of blood vessels in SK/HGF and SK/HGF-TSP-1 tumor sections.

SK/HGF cells = experiment: Cell proliferation and anchorage-independent growth in vitro; assay type: cell-based, human; settings: TSP-1 overexpression compared with parental SK/HGF cells in vitro
Text: FIGS. 5A and 5B are graphs showing that overexpression of TSP-1 has no effect on cell proliferation or anchorage-independent growth compared the parental SK/HGF cells in vitro.
TSP-1 was overexpressed in SK/HGF cells to generate SK/HGF-TSP1 cells (FIG. 3A). Overexpression of TSP-1 has no effect on cell proliferation or anchorage-independent growth compared the parental SK/HGF cells in vitro (FIGS. 5A-5B). To test whether TSP-1 influences tumorigenicity, the present inventors SK/HGF and SK/HGF-TSP1 cells were subcutaneously implanted in athymic nude mice, and their tumor growth rates were compared. At early times, no growth differences were observed between the SK/HGF and SK/HGF-TSP1 groups. However, when the tumors grew to a certain size, differences between became more apparent (Student's t test p<0.025). […] TSP-1 protein expression was confirmed in the SK/HGF-TSP1 tumor group by Western blot analysis (FIG. 3D).

[2] = HUVEC, HGF/SF 200 units/ml for 24 hours

Compound | constitutive level of MAP kinase activity (Erk (p44/42 MAPK)) | activation of Erk in response to HGF/SF (Erk (p44/42 MAPK)) | TSP-1 expression relative to basal level after inhibitor treatment (TSP-1 expression) | TSP-1 expression in the absence of HGF/SF induction (TSP-1 expression; MDA-MB-231 cells) | HGF/SF-induced shut off (down-regulation) of TSP-1 (TSP-1 expression) | VEGF expression in the absence of HGF/SF induction (VEGF expression; MDA-MB-231 cells) | expression of VEGF induced by HGF/SF (VEGF expression; MDA-MB-231 cells) | VEGF expression (up-regulation by HGF/SF) (VEGF expression) | expression of VEGF induced by HGF/SF (VEGF expression; SK-LMS-1 cells) | other results
COc1cccc(-c2cc(=O)c3ccccc3o2)c1N [PD98059] | inhibited | blocked the activation of Erk | higher than the basal level | up-regulation of TSP-1 | blocked; also recorded: inhibited | down-regulation of VEGF | suppressed | inhibited | only slightly | –
N#CC(=C(/N)Sc1ccccc1N)/C(C#N)=C(\N)Sc1ccccc1N [U0126] | inhibited | blocked the activation of Erk | higher than the basal level | up-regulation of TSP-1 | blocked; also recorded: inhibited | down-regulation of VEGF | suppressed | inhibited | only slightly | –
VEGF-Trap: soluble decoy VEGF receptor fused to IgG; high-affinity VEGF blocker | – | – | – | – | – | – | – | – | – | tumor growth and vascularization in vivo (VEGF; Holash et al.): effectively suppressed tumor growth and vascularization; vasculature in established xenografts (VEGF; Huang et al., followed by tumor regression including lung micrometastases): abolished mature, preexisting vasculature
HGF/SF: recombinant human hepatocyte growth factor/scatter factor, ligand of the Met receptor | – | – | – | – | – | – | – | – | – | TSP-1 expression after HGF/SF treatment (TSP-1 expression; [2]): decreased; TSP-1 expression after HGF/SF treatment (TSP-1 expression; MDA-MB-231 cells, 24 and 48 hours after HGF treatment): down-regulation of TSP-1; TSP-1 expression after HGF/SF treatment (TSP-1 expression; SK-LMS-1 cells, HGF/SF 200 units/ml, 6 to 48 hours): significant decrease in TSP-1 expression; VEGF expression with or without HGF/SF treatment (VEGF expression; [2]): undetectable; VEGF expression after HGF/SF treatment (VEGF expression; MDA-MB-231 cells, persisted for 48 hours): levels of VEGF increased; VEGF expression after HGF/SF treatment (VEGF expression; SK-LMS-1 cells, up to 48 hours): induced VEGF
TSP-1: thrombospondin-1, angiogenesis antagonist; tested by ectopic overexpression in SK/HGF cells | – | – | – | – | – | – | – | – | – | HGF/SF-dependent tumor growth (SK/HGF tumor xenografts): partially inhibited; neovascularization (number of CD31-positive vessels) in tumors [1]: Decreased neovascularization; cell proliferation or anchorage-independent growth (SK/HGF cells): no effect
